Where two headings read alike, the source gives them in different places.
Key:
[1] = test system: melanoma cell (A375); assay: In vitro cell viability assay on melanoma cell growth; type: cell-based; conditions: read-out: 50% inhibition concentration (IC50) on melanoma cell (A375) growth
Text: The drug concentrations in the skin after the iontophoresis delivery of those prodrugs or their parent drug ketoprofen from different iontophoresis conditions are summarized in Table 2. The high drug concentration in the skin can be used for treatment of skin diseases including skin cancers such as melanoma. […] The ketoprofen concentrations in the skin from the iontophoresis delivery was not higher than its IC50 against the melanoma cell growth, but the KCE and KME concentrations in the skin from the anode iontophoresis delivery were higher than their IC50 against the melanoma cell growth. Thus, the anode iontophoresis of the prodrugs can provide high drug accumulation in the skin, and such high drug accumulation in the skin can be used for skin disease treatment.

[2] = In vivo rat study of iontophoresis delivery on dorsal back skin: tissue and plasma drug concentrations; conditions: for Drug concentration in the skin: delivered drug (prodrug or ketoprofen); for Concentration of ketoprofen converted from the prodrug in the skin: number in bracket
Method: (§1) The anode iontophoresis of ketoprofen cationic prodrugs KCE, KME and cathode iontophoresis of ketoprofen were compared with an in vivo rat study for evaluation of drug penetration into deep tissues. […] A prodrug solution was loaded in the cell. A constant current of 0.4 mA/cm^2 for iontophoresis was applied for 6 hours. At the end of the iontophoresis delivery, the rats were euthanized. The skin of the application site (under the glass cell) was washed with water, tape stripped once to remove residue drug on skin, and then dissected with a biopsy punch for the tissue layers: epidermis and dermis layer (depth 0-3 mm), subcutaneous tissue (fat pad) (3-4 mm), shallow muscle layer (4-6 mm), and deep muscle (6-10 mm). The tissues from the contralateral site were dissected with the same method. In addition, the plasma blood samples were obtained right before the experiment (time 0) and each hour during the experiment. The drug concentrations in the tissue and plasma samples were analyzed with a HPLC.
as §1, with “cationic prodrugs and cathode” for “cationic prodrugs KCE, KME and cathode”, “ketoprofen were also compared with” for “ketoprofen were compared with”, “rat study at 0.4 mA/cm^2 for a shorter duration of 2 hours for evaluation” for “rat study for evaluation”, “applied for 2 hours. At” for “applied for 6 hours. At”
as §1, with “cationic prodrugs and cathode” for “cationic prodrugs KCE, KME and cathode”, “ketoprofen were also compared with” for “ketoprofen were compared with”, “rat study at 0.057 mA/cm^2 for a duration of 6 hours for evaluation” for “rat study for evaluation”, “current of 0.057 mA/cm^2 for” for “current of 0.4 mA/cm^2 for”, “with a HPLC” for “with a HPLC.”
KPE is a prodrug of ketoprofen but with two methyl groups on the nitrogen atom, instead of three methyl groups on the nitrogen atom like KCE and KME. KPE can be presented as a hydrochloride salt. […] Anode iontophoresis delivery of KPE in this aqueous solution at 0.4 mA/cm^2 for a shorter duration of 2 hour was also conducted with the in vivo rat study.

[3] = test system: knee arthritis pain model (monosodium iodoacetate); assay: MIA knee osteoarthritis rat model treated with iontophoresis; type: in vivo; conditions: 0.4 mA/cm^2 for 20 min on days 1, 2, 3 after MIA; versus iontophoresis of NaCl
Method: A knee arthritis pain model was established by injection of 50 μl of 60 mg/ml monosodium iodoacetate (MIA) into the left hind knee joint of 12 hairless rats, and they were divided into three groups. The knee diameters of both hind knees were measured. The difference in knee diameters between the left knee and right knee was used as the indicator of the swelling (or inflammation) of the left knee. In addition, the weight bearing of each hind limb was also measured with a Linton incapacitance tester. The percentage of the weight bearing by the left leg was used as an indicator of the pain level in the knee. At 1 day, 2 days, 3 days after the injection of MIA, the left knee of the rats in group 1 was treated with iontophoresis of NaCl to the left hind knee at 0.4 mA/cm^2 for 20 min, group 2 treated with iontophoresis of Kt to the left hind knee at 0.4 mA/cm^2 for 20 min, and group 3 treated with iontophoresis of KCE to the left hind knee at 0.4 mA/cm^2 for 20 min. The knee diameter and weight bearing were measured at day 0 before the MIA injection, and also at day 1, 2, and 3 after the MIA injection but before the iontophoresis treatment. They were also measured at day 4, 6, and 10 after the MIA injection.

[4] = Iontophoresis delivery into hairless rat knee joint: tissue and plasma drug concentrations; type: in vivo; conditions: 0.4 mA/cm^2 for 20 min on knee
Method: Hairless rats were anaesthetized with isoflurane. A rubber disk shape applicator with a sponge that can hold 0.5 ml of the drug solution was used and a button Ag/AgCl electrode was used as current driving electrode. The delivery area is about 1.2 cm^2. After drug solution was loaded into the sponge, the applicator was placed on the knee cap skin and applied an electric current at 0.4 mA/cm^2 for 20 min. A return electrode was attached to the upper tail of the rat. After that, the skin was cleaned thoroughly with wet Kim wipes. The tissues (skin, muscle and joint) at the application site knee and also the contralateral site knee were collected at 30 min, 2 hr, 4 hr or 6 hr from the start of iontophoresis delivery. Three animals were used for each time point. Blood samples were also collected at appropriate time points. The tissue and blood samples were stored at −80° C. until further processing.

[5] = In-vitro side-by-side diffusion cell study, iontophoresis across human epidermis skin; type: in vitro ADME; conditions: KCE 26.6 μmol/ml, PE 4.9 μmol/ml, 0.2 mA
Text: The efficiency in anode iontophoresis delivery of KCE and that in cathode iontophoresis delivery of ketoprofen were compared with an in-vitro side-by-side diffusion cell study. […] The human cadaver epidermis skin was sandwiched between the two half cells with stratum corneum face the donor chamber. For anode iontophoresis of KCE, KCE chloride salt solution (26.6 μmol/ml) was placed in the donor cell. For cathode iontophoresis of ketoprofen (Kt), […] solution (26.6 μmol/ml) was placed in the donor cell. Phosphate buffer solution (0.15 M at pH 7.4) was placed in the receiver chamber. Constant current 0.2 mA was applied to the diffusion cell. The amount of drug penetrated through the skin was collected in the receive chamber and analyzed with a HPLC. The anode iontophoresis of the cationic prodrug KCE delivered 4 times more drug across the skin than that delivered by the cathode iontophoresis of ketoprofen (see FIG. 4A) from the in-vitro study.
Anode iontophoresis of the cationic ketoprofen prodrug KCE (26.6 μmol/ml) with the presence of phenylephrine (PE) (4.9 μmol/ml) in solution was evaluated with an in-vitro diffusion cell study across a human epidermis skin.

[6] = iontophoresis 0.057 mA/cm^2 for 6 hrs
[7] = iontophoresis 0.4 mA/cm^2 for 2 hrs
[8] = iontophoresis 0.4 mA/cm^2 for 6 hrs

Compound	IC50 ([1]; A375 cells) [µM]	Plasma and contralateral tissue drug concentration ([2]; 0.057 mA/cm^2 for 6 hours)	Tissue drug concentrations / direct penetration at the application site ([2]; 0.057 mA/cm^2 for 6 hours)	Drug in tissues at the contralateral site ([2]; 0.4 mA/cm^2 for 2 hours)	Plasma drug concentration ([2]; 0.4 mA/cm^2 for 2 hours)	Tissue drug concentrations / direct penetration at the application site ([2]; 0.4 mA/cm^2 for 2 hours)	Drug in tissues at the contralateral site ([2]; 0.4 mA/cm^2 for 6 hours)	Plasma drug concentration ([2]; 0.4 mA/cm^2 for 6 hours)	Tissue drug concentrations / direct penetration at the application site ([2]; 0.4 mA/cm^2 for 6 hours)	Drug concentration in the skin [2, 6]	Concentration of ketoprofen converted from the prodrug in the skin [2, 6]	Drug concentration in the skin [2, 7]	Concentration of ketoprofen converted from the prodrug in the skin [2, 7]	Drug concentration in the skin [2, 8]	Concentration of ketoprofen converted from the prodrug in the skin [2, 8]	IC50 ([1]; Homo sapiens, A-375, A375 cells) [µM]	Knee swelling (knee diameter difference left vs right) [3]	Weight bearing of the left leg (pain indicator) [3]	Plasma Kt concentration [4]	Amount penetrated across the skin by anode iontophoresis, KCE alone versus KCE with phenylephrine [5]
CC(C[N+](C)(C)C)OC(=O)C(C)c1cccc(C(=O)c2ccccc2)c1.[Cl-] (stereo not drawn) [KME, Ketoprofen β-methylcholine ester chloride salt]	1550	we can detect the parent drug Kt in the plasma and also in the contralateral tissue	direct penetration into deep tissues that is up into the deep muscles	no ketoprofen or KME was detected in the tissues at the contralateral site	no ketoprofen or KME in rat plasma was detected	direct penetration into deep tissues and prodrug retaining in the tissues of the application site	No prodrug or Kt was detected in the contralateral tissues	No prodrug or Kt was detected in the plasma	High prodrug KME concentrations in the tissues of the drug application	3725 μmol per kilogram of skin	73 μmol per kilogram of skin	6128 μmol per kilogram of skin	35 μmol per kilogram of skin	34768 μmol per kilogram of skin	449 μmol per kilogram of skin	–	–	–	–	–
CC(C(=O)OCCCN(C)C)c1cccc(C(=O)c2ccccc2)c1.Cl (stereo not shown) [KPE]	–	–	–	–	lower than that from iontophoresis of Kt	Higher drug concentrations in the tissues at the drug application site than those from the contralateral site	–	–	–	–	–	1883 μmol per kilogram of skin	736 μmol per kilogram of skin	–	–	–	–	–	–	–
CC(C(=O)O)c1cccc(C(=O)c2ccccc2)c1 (stereo not shown) [Ketoprofen, reference compound]	–	–	only achieved skin deep penetration with no direct penetration into subcutaneous, shallow muscle or deep muscle tissue	–	–	only achieved skin deep penetration with no direct penetration into subcutaneous, shallow muscle or deep muscle tissue	–	high	can only penetrate skin deep	59 μmol per kilogram of skin	–	378 μmol per kilogram of skin	–	417 μmol per kilogram of skin	–	1400	not as effective	not as effective	high initial plasma Kt concentration than iontophoresis of the cationic prodrug KCE	–
CNC[C@H](O)c1cccc(O)c1 [PE, phenylephrine, reference compound]	–	–	–	–	–	–	–	–	–	–	–	–	–	–	–	–	–	–	–	Significant amount of PE was also delivered across the skin

Source: patent US20150297718A1, “ION[…] OF CATIONIC PRODRUGS FOR TOPICAL TREATMENT OF MUSCU[…] SKIN DISEASES” (priority 2014, published 2015)
